These results are taken from US20160174533A1 (priority 2009, published 2016).

Read-outs that look alike come from different tables or passages of the source.

For series [1], the system named is Cyp3a. The conditions noted are these: cited from earlier work.
Series [2] deals with Cyp3a. The following applies: cited from earlier work. This is another data set of the same source.
Series [3] has as its target T1, Cyp1a2 (Homo sapiens, UniProt P05177).
T1 sequence (P05177 1-516): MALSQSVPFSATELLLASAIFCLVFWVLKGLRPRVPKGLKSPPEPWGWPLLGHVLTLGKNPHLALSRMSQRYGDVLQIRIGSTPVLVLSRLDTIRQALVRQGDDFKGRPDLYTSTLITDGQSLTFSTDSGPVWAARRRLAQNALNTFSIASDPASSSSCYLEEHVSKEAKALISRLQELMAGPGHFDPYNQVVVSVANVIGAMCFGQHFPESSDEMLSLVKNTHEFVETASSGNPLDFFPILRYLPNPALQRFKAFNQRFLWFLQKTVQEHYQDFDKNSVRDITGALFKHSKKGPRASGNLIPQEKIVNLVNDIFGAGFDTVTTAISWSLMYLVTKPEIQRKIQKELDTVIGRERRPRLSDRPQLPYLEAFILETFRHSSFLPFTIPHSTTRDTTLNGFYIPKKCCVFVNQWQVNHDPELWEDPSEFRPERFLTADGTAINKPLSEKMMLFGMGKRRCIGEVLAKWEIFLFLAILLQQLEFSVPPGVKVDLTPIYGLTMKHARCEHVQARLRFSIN
The conditions noted are these: human populations; cited from earlier work.

Series [4] has as its system Cyp7b1. In words: DHEA metabolism in Cyp7b1 KO rats (transposon insertion).
The subject of series [5] is Cyp7b1. The conditions noted are these: liver and kidney of Cyp7b-/- mice; cited from earlier work.
Series [6] relates to Cyp2e1. The following applies: Cyp2e1-/- mice; cited from earlier work.
The target of series [7] is Cyp2e1 (Mus musculus, UniProt Q05421). The following applies: mouse, in vivo, 400 mg/kg; cited from earlier work.
Sequence of Cyp2e1 (Mus musculus, UniProt Q05421) (Q05421 whole entry): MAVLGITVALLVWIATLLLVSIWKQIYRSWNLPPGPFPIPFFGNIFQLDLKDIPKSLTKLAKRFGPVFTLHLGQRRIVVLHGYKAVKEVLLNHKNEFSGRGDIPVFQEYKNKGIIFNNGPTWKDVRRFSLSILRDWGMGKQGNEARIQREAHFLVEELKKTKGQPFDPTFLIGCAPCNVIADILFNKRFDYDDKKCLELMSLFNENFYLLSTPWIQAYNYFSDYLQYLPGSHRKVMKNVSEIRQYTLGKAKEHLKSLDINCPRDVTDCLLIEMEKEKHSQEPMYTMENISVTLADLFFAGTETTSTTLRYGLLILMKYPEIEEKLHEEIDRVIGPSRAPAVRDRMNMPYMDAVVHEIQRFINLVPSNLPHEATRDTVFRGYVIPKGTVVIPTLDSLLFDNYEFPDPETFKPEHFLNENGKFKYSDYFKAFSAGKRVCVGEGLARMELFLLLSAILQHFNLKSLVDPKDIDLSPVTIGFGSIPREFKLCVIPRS
For the next series, the target named is T2, ER-alpha (Homo sapiens, UniProt P03372).
T2 construct: expressed in transfected cells
T2 sequence (P03372 whole entry): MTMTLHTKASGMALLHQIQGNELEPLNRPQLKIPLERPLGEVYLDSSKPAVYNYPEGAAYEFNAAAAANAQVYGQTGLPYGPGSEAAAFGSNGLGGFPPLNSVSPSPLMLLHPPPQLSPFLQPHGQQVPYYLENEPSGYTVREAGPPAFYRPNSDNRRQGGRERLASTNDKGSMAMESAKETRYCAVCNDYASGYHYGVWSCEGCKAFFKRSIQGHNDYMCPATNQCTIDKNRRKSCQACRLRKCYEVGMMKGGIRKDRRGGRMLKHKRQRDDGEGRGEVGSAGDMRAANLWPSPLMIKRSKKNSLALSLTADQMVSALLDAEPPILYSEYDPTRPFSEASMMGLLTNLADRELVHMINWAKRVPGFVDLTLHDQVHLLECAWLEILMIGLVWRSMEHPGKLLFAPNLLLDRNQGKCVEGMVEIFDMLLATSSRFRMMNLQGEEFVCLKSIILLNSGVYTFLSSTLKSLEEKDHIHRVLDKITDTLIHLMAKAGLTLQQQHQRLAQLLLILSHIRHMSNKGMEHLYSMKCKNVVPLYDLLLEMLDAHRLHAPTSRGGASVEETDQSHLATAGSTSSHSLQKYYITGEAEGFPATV
The following applies: cited from earlier work.

A further series deals with T3, ER-beta (Homo sapiens, UniProt Q92731).
T3 construct: expressed in transfected cells
T3 sequence (Q92731 whole entry): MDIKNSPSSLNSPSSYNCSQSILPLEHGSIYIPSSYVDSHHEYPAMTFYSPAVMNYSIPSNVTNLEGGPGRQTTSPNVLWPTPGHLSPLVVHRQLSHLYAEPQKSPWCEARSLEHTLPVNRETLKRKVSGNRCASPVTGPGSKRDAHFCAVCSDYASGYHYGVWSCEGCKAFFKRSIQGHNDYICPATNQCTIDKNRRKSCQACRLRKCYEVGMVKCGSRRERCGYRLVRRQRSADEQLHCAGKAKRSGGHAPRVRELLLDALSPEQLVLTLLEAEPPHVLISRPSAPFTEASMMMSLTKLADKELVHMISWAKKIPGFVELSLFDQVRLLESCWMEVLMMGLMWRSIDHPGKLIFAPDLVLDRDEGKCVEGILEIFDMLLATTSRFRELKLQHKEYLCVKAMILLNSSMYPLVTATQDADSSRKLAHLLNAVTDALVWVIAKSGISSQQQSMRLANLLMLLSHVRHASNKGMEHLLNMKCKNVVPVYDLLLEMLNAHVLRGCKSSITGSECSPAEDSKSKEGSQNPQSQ
The conditions noted are these: cited from earlier work.

Another series concerns the target T4, androgen receptors (AR) (Homo sapiens, UniProt P10275).
T4 construct: expressed in transfected cells
T4 sequence (P10275 1-920): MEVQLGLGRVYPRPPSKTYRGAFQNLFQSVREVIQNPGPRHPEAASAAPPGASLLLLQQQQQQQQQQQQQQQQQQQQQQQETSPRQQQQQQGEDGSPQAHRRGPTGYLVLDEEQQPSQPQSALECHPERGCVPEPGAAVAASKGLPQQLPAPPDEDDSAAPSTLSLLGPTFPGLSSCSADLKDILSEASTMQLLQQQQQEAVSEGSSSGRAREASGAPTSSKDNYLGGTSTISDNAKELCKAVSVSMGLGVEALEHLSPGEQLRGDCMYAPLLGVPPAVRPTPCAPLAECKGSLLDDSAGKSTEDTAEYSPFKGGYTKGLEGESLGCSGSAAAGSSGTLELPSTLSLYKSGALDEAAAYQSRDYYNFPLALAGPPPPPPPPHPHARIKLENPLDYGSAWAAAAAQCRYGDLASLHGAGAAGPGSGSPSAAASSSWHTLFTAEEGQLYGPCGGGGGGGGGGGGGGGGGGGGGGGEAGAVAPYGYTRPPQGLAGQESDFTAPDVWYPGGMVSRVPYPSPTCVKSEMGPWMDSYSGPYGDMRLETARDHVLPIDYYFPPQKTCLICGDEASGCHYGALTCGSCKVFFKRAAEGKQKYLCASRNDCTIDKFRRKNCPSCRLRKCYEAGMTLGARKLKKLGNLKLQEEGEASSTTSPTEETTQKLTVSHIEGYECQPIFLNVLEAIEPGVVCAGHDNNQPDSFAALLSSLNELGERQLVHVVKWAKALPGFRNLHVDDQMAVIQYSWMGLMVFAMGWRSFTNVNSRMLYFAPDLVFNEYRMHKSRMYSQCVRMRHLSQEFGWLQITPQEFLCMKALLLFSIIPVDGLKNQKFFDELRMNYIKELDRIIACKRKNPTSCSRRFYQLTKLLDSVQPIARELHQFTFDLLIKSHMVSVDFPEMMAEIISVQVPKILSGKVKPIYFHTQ
The conditions noted are these: cited from earlier work.

Series [8] concerns the target T5, Cyp1a2 (Mus musculus, UniProt P00186).
T5 sequence (P00186 2-513): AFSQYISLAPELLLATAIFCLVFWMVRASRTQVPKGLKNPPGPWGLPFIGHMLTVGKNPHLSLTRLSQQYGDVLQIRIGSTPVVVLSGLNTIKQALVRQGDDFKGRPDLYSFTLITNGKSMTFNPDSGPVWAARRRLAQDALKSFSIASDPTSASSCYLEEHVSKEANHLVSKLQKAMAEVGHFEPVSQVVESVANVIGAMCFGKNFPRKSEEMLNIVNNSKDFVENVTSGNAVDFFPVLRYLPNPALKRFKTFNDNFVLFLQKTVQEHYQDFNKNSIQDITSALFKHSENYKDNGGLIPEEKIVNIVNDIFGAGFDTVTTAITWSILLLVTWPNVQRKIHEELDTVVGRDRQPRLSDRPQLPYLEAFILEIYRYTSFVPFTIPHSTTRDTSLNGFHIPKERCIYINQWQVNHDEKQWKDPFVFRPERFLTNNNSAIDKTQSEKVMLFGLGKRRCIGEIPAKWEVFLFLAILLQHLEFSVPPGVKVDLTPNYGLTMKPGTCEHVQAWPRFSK
The following applies: WT mice; cited from earlier work.

Series [9] concerns Cyp1a2. The following applies: Cyp1a2-/- mice; cited from earlier work.

With `CC(=O)O[C@@]12CO[C@@H]1C[C@H](O)[C@@]1(C)C(=O)[C@H](O)C3=C(C)[C@@H](OC(=O)[C@H](O)[C@@H](NC(=O)OC(C)(C)C)c4ccccc4)C[C@@](O)([C@@H](OC(=O)c4ccccc4)[C@H]21)C3(C)C` [docetaxel], the M-2 metabolite formation entry is given as “not recognized” with Cyp3a [1] (Cyp3a-/- microsomes) and “efficiently formed” with Cyp3a [1] (WT microsomes). Further, the oral bioavailability was 21.2% in the series on Cyp3a [2] (Cyp3a-/- mice) and 8.1% with Cyp3a [2] (WT mice). Moreover, the “plasma docetaxel, Cyp3a-/- versus WT mice” value in the series with Cyp3a [2] (after i.v. administration) is on record as 6.8 fold. Further, in the series with Cyp3a [2] (after oral administration), the “plasma level of docetaxel, Cyp3a-/- versus WT mice” value was 17.7 fold. In addition, the “docetaxel metabolism (KO phenotype)” value with Cyp3a [2] (mice deficient for gene family Cyp3a) is listed as “function are unable to metabolize docetaxel”.

For the molecule `Cn1c(=O)c2c(ncn2C)n(C)c1=O` [Caffeine], the half-life (as a rule, the time needed for the level to fall by half in the phase considered) at Cyp1a2 [3] is 1.5 to 9.5 h.

Take `C[C@]12CC[C@H](O)CC1=CC[C@@H]1[C@@H]2CC[C@]2(C)C(=O)CC[C@@H]12` [DHEA, dehydroepiandrosterone]: the “metabolism of DHEA to 7α-hydroxy-DHEA” value with Cyp7b1 [4] is “unable to metabolize”. Also, the “DHEA conversion to 7D” value with Cyp7b1 [5] is given as “significantly altered”.

Consider `CC(=O)Nc1ccc(O)cc1` [acetaminophen], for which the dose survived result in the series with Cyp2e1 [6] is “up to 400 mg/kg”. The “mice that succumb to toxicity and die” value on Cyp2e1 [7] was “over 50%”.

Regarding `C[C@]12CC[C@H](O)CC1=C[C@@H](O)[C@@H]1[C@@H]2CC[C@]2(C)C(=O)CC[C@@H]12` [7-alpha-hydroxy-DHEA], the receptor activation result at ER-alpha, at ER-beta and at androgen receptors (AR) was “activates” each time.

For the molecule `Clc1cc2c(cc1Cl)Oc1cc(Cl)c(Cl)cc1O2` [TCDD, 2,3,7,8-Tetrachlorodibenzo-p-dioxin], the “liver-to-adipose (L/F) ratio” value was 3.6 at Cyp1a2 [8] and 0.2 in the series with Cyp1a2 [9].
